Non-standard residues stand in square brackets, D forms with d. *: point of attachment. Arg(NO2) = N=C(NCCC[C@H](N)C(=O)O)N[N+](=O)[O-]; OCH2CH2CH2CH3 = CCCCO*
Assays:
[1] = test system: rats given sterilized E. coli suspension as a pyrogen; test: Antipyretic activity of ibuprofen and its HPC (Study A); format: in vivo; settings: 20 mg/kg, oral administration
[2] = test system: carrageenin-induced swelling of rat hind paw; test: Anti-inflammatory activity, carrageenin paw swelling; format: in vivo, rats
[3] = test system: spinal cord injuries; test: Spinal cord injury in paralyzed rats; format: in vivo; settings: 5 mg in 0.2 ml water on area of injury twice per day for 1 months, n=10
Description: A paralyzed rat was produced by anesthetizing with chloral hydrate first, and then hitting at its spinal cord to induce spinal cord injuries. On the next day, 20 completely paralyzed rats were divided into 2 groups. […] In group B (n=10), 5 mg of diethylaminopropyl acetylsalicylate.HCl in 0.2 ml of pure water was applied to the area of injury (˜2×3 cm^2) twice per day for 1 months. After the treatment, all rats (10/10) in group A were still completely paralyzed. While all rats (10/10) in group B could walk. 4 Rats of group B acted completely normal and the other 6 rats walked more slowly and less confidently than before their injury.

[4] = test system: Tg2576 mouse model of AD; test: Anti-Alzheimer disease activity in Tg2576 mice; format: in vivo
Text: For many years, efforts have been focused on the development of inhibitors of β-amyloid (Aβ) formation and its related neurotoxic effects. To determine the effect of diethylaminopropyl acetylsalicylate. HCl on in vivo AD accumulation, we administered transdermally diethylaminopropyl acetylsalicylate. […] Three-month-old female transgenic mice overexpressing the human APP gene containing the Swedish mutation that causes familial AD (Tg2576 line) were used for testing the effects of diethylaminopropyl acetylsalicylate.HCl in vivo. 20 Tg2576 mice were divided into 2 groups. […] In group B (n=10), 50 mg/kg of diethylaminopropyl acetylsalicylate.HCl in 0.2 ml of pure water was applied to the back of mouse once per day for 2 months. Then the animals were killed and their brains were removed for analysis. For Aβ analysis, hemibrains were dounce homogenized in 70% formic acid at 150 mg tissue/ml formic acid solution. Homogenates were transferred to a chilled ultracentrifuge and were then spun at 100,000 g for 1 h at 4° C. Supernatants were collected and neutralized with formic acid neutralization buffer (1.0 M Tris base, 0.5 M NaH2PO4, and 0.05% NaN3; 1:20) for Aβ quantitation by ELISA. Aβ40 and Aβ42 were assayed by ELISA. Four individual experiments were performed. To compare across studies, the values for an individual study were normalized using the values obtained for the control animals included in each study. Values represent the mean±SE for the n number shown, after normalizing.
To determine if the transdermal administration of diethylaminopropyl acetylsalicylate.HCl has beneficial functional consequences, we tested 2 months of diethylaminopropyl acetylsalicylate.HCl (50 mg/kg) in the transgenic model for Alzheimer's disease in which mice develop learning deficits as amyloid accumulates. […] In the diethylaminopropyl acetylsalicylate.HCl (50 mg/kg) treated group, all mice performed superbly on the radial-arm water-maze test of working memory and untreated transgenic mice show memory deficits. […] This therapeutic approach can thus prevent and treat Alzheimer's dementia.

[5] = test system: GK rats (SLAC/GK, type 2 diabetes); test: Anti-diabetes (type II) activity of HPCs of NSAIAs in GK rats; format: in vivo; settings: 30 mg/kg transdermally once per day, no fasting
Description: (§1) A HPC in the present disclosure lowered blood glucose levels in rat models (SLAC/GK, type 2 diabetes, n=7). 30 mg/kg of 8% diethylaminoethyl acetylsalicylate.HCl salt (P-1, in 25% ethanol); 4-acetamidophenyl salicylyldimethylaminobutyrate.HCl (P-6, in 25% ethanol), diethylaminoethyl 5-(2,4-difluorophenyl)acetylsalicylate.5-(2,4-difluorophenyl)acetylsalicylic acid salt (P-8, in 25% ethanol), diethylaminoethyl salicylsalicylate.HCl salt (P-9, in 25% ethanol), diethylaminoethyl salicylate.AcOH(P-10, in 25% ethanol), diethylaminoethyl 5-acetamido-acetylsalicylate.HCl(P-58, in 25% ethanol), diethylaminoethyl acetylsalicylsalicylate. HCl salt (P-59, in 25% ethanol), diethylaminoethyl acetylsalicylsalicylsalicylate. HCl salt (P-60, in 25% ethanol) were administered transdermally to the backs (6 cm^2, fur was shaved) of GK rats (SLAC/GK, 14-16 weeks old) and normal SD rats (SLAC/SD, 14-16 weeks old) once per day (at 8 am) for 6 weeks.
(§2) The blood glucose levels were measured once every 3 days at 4:30 pm (no fasting) from the third week to the sixth week as shown in Table 10a and 10b. […] Moreover, the blood glucose levels of the rats stayed at normal level (6-9 mmol/L, no fasting) after the treatment was stopped for 40 days.

[6] = test system: normal SD rats (SLAC/SD); test: Blood glucose in normal SD rats treated with HPCs of NSAIAs; format: in vivo; settings: 30 mg/kg transdermally once per day, no fasting
Description: as §1, §2

[7] = test system: SLAC/DB/DB obese mice; test: Blood glucose and blood lipid levels in DB/DB mice; format: in vivo; settings: 30 mg/kg transdermally once per day
Description: HPCs in the present disclosure lowered blood glucose levels and blood lipid levels in mice models (SLAC/DB/DB, obese mice, n=7). 30 mg/kg of 8% diethylaminoethyl acetylsalicylate.HCl salt (P-1, in 25% ethanol); 4-acetamidophenyl salicylyldimethylaminobutyrate.HCl (P-6, in 25% ethanol), diethylaminoethyl 5-(2,4-difluorophenyl)acetylsalicylate.5-(2,4-difluorophenyl)acetylsalicylic acid salt (P-8, in 25% ethanol), diethylaminoethyl salicylsalicylate.HCl salt (P-9, in 25% ethanol), diethylaminoethyl salicylate.AcOH(P-10, in 25% ethanol), diethylaminoethyl 5-acetamido-acetylsalicylate.HCl(P-58, in 25% ethanol), diethylaminoethyl acetylsalicylsalicylate.HCl salt (P-59, in 25% ethanol), diethylaminoethyl acetylsalicylsalicylsalicylate.HCl salt (P-60, in 25% ethanol) were administered transdermally to the backs (4 cm^2,fur was shaved) of DB/DB mice(SLAC/DB/DB, 10-12 weeks old) once per day (at 8 am) for 5 weeks. The blood glucose levels were measured once per week and blood lipid levels were measured once every other week.

[8] = test system: SLAC:NOD-IDDM, type 1 diabetes; test: Anti-diabetes (type I) activity of HPCs of NSAIAs; format: in vivo, mice
Text: 10% aqueous solution of diethylaminoethyl acetylsalicylate.acetylsalicylic acid salt (P-1, […]); 4-acetamidophenyl salicylyldimethylaminobutyrate. HCl (P-6), diethylaminoethyl 5-(2,4-difluorophenyl)acetylsalicylate.5-(2,4-difluorophenyl)acetylsalicylic acid salt (P-8), diethylaminoethyl salicylsalicylate.AcOH(P-9), diethylaminoethyl 5-acetamido-acetylsalicylate. HCl (P-58), diethylaminoethyl 2-(ρ-isobutylphenyl) propionate.citric acid (P-59), diethylaminoethyl acetylsalicylsalicylate. acetylsalicylsalicylsalicylic acid salt (P-60) (equal to of 20 mg/kg of NSAIAs) were administered transdermally to the shaved back (about 1.5 cm^2) of mice twice per day (at 8 am and 5 pm) for 7 weeks.
The blood glucose levels were measured once every 3 days at 4:30 pm (no fasting) from the fourth week to the seventh week as shown in Table 11.

[9] = test system: autologous blood clots injected in femoral vein (pulmonary thrombus); test: Anti-thrombosis activity, autologous blood clots in rabbits; format: in vivo, Chinese White rabbits; settings: 50 mg/kg topically to the back twice per day, 5 days
Description: Eighteen Chinese White rabbits weighing between 3.0 and 3.5 kg (aged 6-7 months) were selected and divided into three groups (control, P-1 and […] groups, n=6). One hour before the experiment, thrombi were made by aspirating venous blood (1 ml) into a sterilized bottle to clot. To avoid fragmentation and slow lysis, the autologous blood clots were stabilized in temperature-controlled (70° C.) distilled water for 10 min. After anesthesia, the femoral veins were exposed and distally isolated, and autologous blood clots (0.05 g/kg) were injected through an indwelling catheter (20GA), which had been placed in the femoral vein isolated earlier. 50 mg/kg of diethylaminoethyl acetylsalicylate.HCl salt (P-1, 10% in 25% ethanol) and diethylaminoethyl acetylsalicylsalicylate.HCl salt (P-59, 10% in 25% ethanol) were topically applied to the back of the rabbits twice per day. After 5 days, rabbits were euthanized with an excessive intravenous injection of sodium amobarbital (60 mg/kg). The lungs and hearts were isolated to observe whether thrombi were present in the pulmonary arteries. The lungs were immersed in 10% formalin for 24 h. Consecutive transverse sections along the obstructed pulmonary arteries were paraffin-embedded and stained with hematoxylin-eosine. […]

[10] = test system: Female Sprague Dawley (SD) rats; test: Anti-obesity in Sprague Dawley rats; format: in vivo
Description: 20 Female Sprague Dawley (SD) rats (20 weeks old, 320-345 g) were divided into 2 groups. In group A, 0.2 ml of water was administered to the back of rat (n=10) twice per day for 30 days. In Group B, 10 mg/kg of H-Val-Pro-Gly-Pro-Arg(NO2)—OCH2CH2CH2CH3.HCl in 0.2 ml of water was administered transdermally to the backs of rats (n=10) twice per day for 30 days.

[11] = test system: obese DB/DB mice (SLAC/DB/DB); test: Anti-obesity in obese mice (SLAC/DB/DB); format: in vivo
Description: 20 obese DB/DB mice (SLAC/DB/DB) mice (16 weeks old, 55-60 g) were divided into 2 groups. In group A, 0.1 ml of water was administered to the back of mouse (n=10) twice per day for 30 days. In Group B, 15 mg/kg of H-Val-Pro-Gly-Pro-Arg(NO2)—OCH2CH2CH2CH3.HCl in 0.2 ml of water was administered transdermally to the backs of rats (n=10) twice per day for 30 days.

[12] = 10 mg/kg transdermally twice per day for 30 days
[13] = 15 mg/kg transdermally twice per day for 30 days

## CCN(CC)CCOC(=O)C(C)c1ccc(CC(C)C)cc1 (stereo not drawn) [HPC of ibuprofen, diethylaminoethyl 2-(ρ-isobutylphenyl) propionate]
[1]
  antipyretic effect: almost the same effect as 100 mg/kg of ibuprofen
[2]; transdermal or oral administrations
  anti-inflammatory activities, times stronger than parent drug ibuprofen: more than 5 times

## CCN(CC)CCCOC(=O)c1ccccc1OC(C)=O.Cl [diethylaminopropyl acetylsalicylate.HCl]
[3]
  rats that acted completely normal after the treatment: 4
  rats that could walk after the treatment: 10/10
[4]; 50 mg/kg transdermally once per day for 2 months
  reduction in Aβ42 concentration in the brain: 70%
[4]; 50 mg/kg transdermally once per day for 2 months, ELISA
  Aβ42 concentration: 2.3 ± 0.3 pmol/g tissue
[4]; 50 mg/kg, 2 months
  cognitive performance, radial-arm water-maze test of working memory: performed as well as nontransgenic mice

## CCN(CC)CCOC(=O)c1ccccc1OC(=O)c1ccccc1OC(C)=O.Cl [P-59, diethylaminoethyl acetylsalicylsalicylate. HCl salt]
[5]
  blood glucose, Average (Week 2-5): 8.2 ± 2.7 mmol/L
  blood glucose, Day 1: 16.8 ± 3.0 mmol/L
[6]
  blood glucose, Average (Week 2-5): 5.8 ± 1.0 mmol/L
  blood glucose, Day 1: 5.7 ± 1.3 mmol/L
[7]
  Cholesterol (total), Day 1: 6.6 ± 0.4 mmol/L
  Cholesterol (total), Week 5: 4.7 ± 0.4 mmol/L
  Triglycerides, Day 1: 4.6 ± 0.4 mmol/L
  Triglycerides, Week 5: 4.6 ± 0.5 mmol/L
  blood glucose, Day 1: 14.2 ± 2.2 mmol/L
  blood glucose, Week 5: 8.1 ± 2.4 mmol/L
[8]; equal to 20 mg/kg of NSAIAs transdermally twice per day for 7 weeks
  blood glucose, Baseline: 19.1 ± 3.2 mmol/L
[8]; fourth week to seventh week, no fasting, equal to 20 mg/kg of NSAIAs transdermally twice per day
  blood glucose, Average: 8.9 ± 1.7 mmol/L
[9]
  lung tissue and vascular walls (histology): both lung tissue and vascular walls were normal

## H-Val-Pro-Gly-Pro-Arg(NO2)—OCH2CH2CH2CH3.HCl (H-VPGP[Arg(NO2)]-OCH2CH2CH2CH3; also: HCl salt)
[10]; [12]
  Food intake (per day & per rat): 17.5 ± 1.2
  Weight (Day1): 333.5 ± 4.2 g
  Weight (Day 30): 301.4 ± 3.7 g
[10]; rat, in vivo
  control group heavier than the peptide treated group: about 17%
[11]; [13]
  Food intake (per day & per rat): 3.9 ± 0.3
  Weight (Day1): 57.1 ± 1.8 g
  Weight (Day 30): 53.4 ± 4.7 g
[11]; mouse, in vivo
  control group heavier than the peptide treated group: about 26%

## CCN(CC)CCOC(=O)C(C)c1ccc(CC(C)C)cc1.O=C(O)CC(O)(CC(=O)O)C(=O)O (stereo not drawn) [diethylaminoethyl 2-(p-isobutylphenyl)propionate.citric acid]
[2]; 20 mg/kg (2×10 mg) transdermally
  anti-inflammatory activity (rate of swelling) compared with ibuprofen: much stronger than that of 100 mg/kg of ibuprofen (oral)
[2]; 50 mg/kg orally
  anti-inflammatory activity (rate of swelling) compared with ibuprofen: much stronger than that of 100 mg/kg of ibuprofen (oral)

Reference: US11541029B2, “High penetration compositions and their applications” (Techfields Pharma Co., Ltd., priority 2008, dated 2023)
